IC50 and inhibition data for 13 compounds are collected here from ChEMBL document CHEMBL3997827, “Synthesis of novel spiro[pyrazolo[4,3-d]pyrimidinones and spiro[benzo[4,5]thieno[2,3-d]pyrimidine-2,3'-indoline]-2',4(3H)-diones and their evaluation for anticancer activity” (Bioorg Med Chem Lett, 2017).

What is called IC50 is the concentration that inhibits the measured activity by half. By inhibition is commonly meant the drop in the measured response relative to a control, in per cent.

One assay deals with COLO 205. Briefly: Cytotoxicity against human COLO205 cells assessed as decrease in cell viability after 24 hrs by MTT assay. The assay is classed as functional, cell-based. The note with it: COLO 205, 24 h. For orientation: Formazan colour is commonly taken as a measure of viable cells.
A further assay deals with K562. Nature of the assay: Cytotoxicity against human K562 cells assessed as decrease in cell viability after 24 hrs by MTT assay. To be noted: K562, 24 h. The assay is classed as functional, cell-based.
Another assay has as its system MDA-MB-231. Briefly: Cytotoxicity against human MDA-MB-231 cells assessed as decrease in cell viability after 24 hrs by MTT assay. The assay is classed as functional, cell-based. The note with it: MDA-MB-231, 24 h.
For assay [1], the target named is T1, NAD-dependent protein deacetylase sirtuin-1 (Homo sapiens) (UniProt Q96EB6).
T1 sequence (whole entry): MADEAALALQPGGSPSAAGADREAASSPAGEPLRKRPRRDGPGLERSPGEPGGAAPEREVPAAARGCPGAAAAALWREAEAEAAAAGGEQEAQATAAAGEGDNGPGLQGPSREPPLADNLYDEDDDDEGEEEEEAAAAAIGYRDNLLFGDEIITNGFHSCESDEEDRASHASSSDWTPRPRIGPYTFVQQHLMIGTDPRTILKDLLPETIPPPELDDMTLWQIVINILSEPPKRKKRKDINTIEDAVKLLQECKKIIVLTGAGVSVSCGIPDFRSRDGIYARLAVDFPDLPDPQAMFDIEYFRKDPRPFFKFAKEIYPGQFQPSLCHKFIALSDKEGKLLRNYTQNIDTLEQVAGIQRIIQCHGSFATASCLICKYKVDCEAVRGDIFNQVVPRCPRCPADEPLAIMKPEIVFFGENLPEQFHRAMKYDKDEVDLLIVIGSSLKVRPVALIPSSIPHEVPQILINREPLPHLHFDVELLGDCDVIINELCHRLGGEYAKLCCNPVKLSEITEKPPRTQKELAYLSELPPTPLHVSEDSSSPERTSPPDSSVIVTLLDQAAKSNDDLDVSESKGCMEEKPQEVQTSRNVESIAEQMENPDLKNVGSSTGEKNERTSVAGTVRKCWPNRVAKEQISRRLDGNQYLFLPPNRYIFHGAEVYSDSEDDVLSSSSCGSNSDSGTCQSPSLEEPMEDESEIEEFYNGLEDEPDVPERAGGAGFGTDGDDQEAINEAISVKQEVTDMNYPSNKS
Nature of the assay: Inhibition of human Sirt1 expressed in bacteria at 10 uM using fluorophorelabeled substrate peptide after 15 mins by fluorescence assay relative to control.

For `CCCc1nn(C)c2c1NC1(CCC(C)(C)CC1)NC2=O`, the IC50 was determined as 24 µM in the assay with COLO 205, 19 µM in the assay on K562 and 45 µM in the assay with MDA-MB-231.
In assay [1], `CCCc1nn(C)c2c1NC1(NC2=O)C(=O)N(C(=O)OC(C)(C)C)c2ccccc21` (centres undefined) showed an inhibition of 46 to 69%. Moreover, the 50% inhibitory concentration (IC50) came to 10 µM with COLO 205, 15 µM in the assay with K562 and 28 µM in the assay with MDA-MB-231.
For `CN1C(=O)C2(NC(=O)c3c(sc4c3CCCC4)N2)c2ccccc21` (centres undefined) the same measures were 46 to 69%, 9 µM, 16 µM and 39 µM.
With `CCCc1nn(C)c2c1NC1(CCCCCC1)NC2=O`, the IC50 in the assay with COLO 205 is 26 µM; in the assay on K562 it was 21 µM; with MDA-MB-231 it was 52 µM.
For `CCCc1nn(C)c2c1NC1(CCCCC1)NC2=O`, in that order: 18 µM, 16 µM and 35 µM.
For the compound `CCCc1nn(C)c2c1NC1(CCCC1)NC2=O`, the concentration for half-maximal inhibition (IC50) with COLO 205 amounted to 17 µM; with K562 it was 14 µM; with MDA-MB-231 it was 34 µM.
For `CCCCCCCCCCCCN1C(=O)C2(NC(=O)c3c(sc4c3CCCC4)N2)c2ccccc21` (centres undefined), in that order: 16 µM, 27 µM and 29 µM.
On to `CCCc1nn(C)c2c1NC1(NC2=O)C(=O)N(Cc2ccccc2)c2ccccc21` (centres undefined), for which the inhibition in assay [1] was 46 to 69%. The figures for the concentration for half-maximal inhibition (IC50) in the assay with COLO 205, in the assay on K562 and with MDA-MB-231 were 15 µM, 16 µM and 38 µM, respectively.
`CCCc1nn(C)c2c1NC1(NC2=O)C(=O)N(CC)c2ccccc21` (centres undefined): the results for the concentration for half-maximal inhibition (IC50) with COLO 205, with K562 and with MDA-MB-231 were 16 µM, 22 µM and 41 µM, respectively.
In assay [1], `CCCCCCCCCCCCCCCCN1C(=O)C2(NC(=O)c3c(sc4c3CCCC4)N2)c2ccccc21` (centres undefined) yielded an inhibition of 46 to 69%. The values for the IC50 in the assay with COLO 205, in the assay with K562 and with MDA-MB-231 were 18 µM, 19 µM and 34 µM, respectively.
For `CCCc1nn(C)c2c1NC1(NC2=O)C(=O)N(C)c2ccccc21` (centres undefined), the values for the IC50 in the assay on COLO 205, in the assay with K562 and in the assay on MDA-MB-231 were 15 µM, 20 µM and 34 µM, respectively.
For `CCN1C(=O)C2(NC(=O)c3c(sc4c3CCCC4)N2)c2ccccc21` (centres undefined) the same measures were 12 µM, 21 µM and 34 µM.
In assay [1], `CC(C)N1C(=O)C2(NC(=O)c3c(sc4c3CCCC4)N2)c2ccccc21` (centres undefined) came in with an inhibition of 46 to 69%. For the same compound, the IC50 amounted to 6 µM in the assay on COLO 205, 12 µM in the assay on K562 and 22 µM in the assay on MDA-MB-231.
